Test results: ChEMBL document CHEMBL1147280, “Isolation Of A Novel Cytotoxic Polyacetylene From A Traditional Anthelmintic Medicinal Plant, Minquartia guianensis” (J Nat Prod, 1989)
≈ marks a conversion by molar mass, not a printed value.

Assays:
P388 = assay: Cytotoxicity against mouse P388 cells; assay type: functional; conditions: read-out: ED50 (the source's name)
[1] = Toxicity in brine shrimp larvae; assay type: organism-based; conditions: artemia, in vivo

CC(O)C#CC#CC#CC#CCCCCCCCC(=O)O (single isomer, unassigned; (-))
EC50 (P388): 0.53 µg/mL (≈ 1.86 µM)
LC50 [1]: 5.06 µg/mL (≈ 17.8 µM)
